We go through seven substances from PMC5415599, “New Potent Membrane-Targeting Antibacterial Peptides from Viral Capsid Proteins” (Frontiers in Microbiology, 2017).

The test system of assay [1] is Escherichia coli (E. coli) ATCC 25922. It counts as cell-based. The settings on record: MHB, 5 × 10^5 CFU/mL, 37°C, 18 h, triplicate. On the procedure: (§1) The antibacterial activity of the vCPPs was tested using a standard broth microdilution procedure ([Wikler et al., 2006]; [Wiegand et al., 2008]) to evaluate the bacterial growth inhibition and determine the minimal inhibitory concentration (MIC). The assay was performed using the following strains: Gram-positive Staphylococcus aureus (S. aureus) ATCC 25923 and methicillin-resistant Staphylococcus aureus (MRSA) ATCC 33591, and Gram-negative Escherichia coli (E. coli) ATCC 25922 and Pseudomonas aeruginosa (P. aeruginosa) ATCC 27853, obtained from American Type Culture Collection (ATCC) (Manassas, VA, USA). Bacterial suspensions were prepared by direct suspension of morphologically similar colonies on Mueller Hinton Broth (MHB) from BD (Franklin Lakes, NJ, USA) to a final concentration of 1 × 10^6 CFU/mL, and added to a sterile 96-well microtiter polypropylene plate from Corning (Corning, NY, USA) containing two-fold dilutions of each peptide. Final bacterial concentration was 5 × 10^5 CFU/mL whereas peptide concentrations ranged between 100 and 0.78 μM. The 96-well plate was incubated at 37°C for 18 h. The MIC was defined as the lowest peptide concentration required to inhibited visible bacterial growth. The assay was performed in triplicate.

Assay [2] concerns Pseudomonas aeruginosa (P. aeruginosa) ATCC 27853. The class given is cell-based. Conditions: MHB, 5 × 10^5 CFU/mL, 37°C, 18 h, triplicate. On the procedure: as §1
The test system of assay [3] is methicillin-resistant Staphylococcus aureus (MRSA) ATCC 33591. It counts as cell-based. The settings on record: MHB, 5 × 10^5 CFU/mL, 37°C, 18 h, triplicate. The protocol: as §1
The subject of assay [4] is S. aureus. It counts as cell-based, Staphylococcus aureus. The settings on record: for bactericidal or bacteriostatic: bactericidal when MBC is equal or lower than four-fold MIC; for MBC: lowest concentration causing ≥99.9% cell death of the inoculum, TSA plates, 37°C, 24 h, triplicate. On the procedure: (§2) After the MIC assay, aliquots were removed from the wells with no visible bacterial growth, serially diluted in MHB, plated on nutrient-rich trypcase soy agar (TSA) plates from bioMérieux (Marcy l’Etoile, France), and incubated at 37°C for 24 h. […] The assay was performed in triplicate.

The test system of assay [5] is P. aeruginosa. It counts as cell-based. Conditions: for bactericidal or bacteriostatic: bactericidal when MBC is equal or lower than four-fold MIC; for MBC: lowest concentration causing ≥99.9% cell death of the inoculum, TSA plates, 37°C, 24 h, triplicate. The protocol: as §2
The subject of assay [6] is S. aureus. The experiment in a line: Time-kill assay. It counts as cell-based, Staphylococcus aureus. The settings on record: peptide at its MBC, after 30 min, MHB, 37°C, relative to control without peptide, three independent experiments. On the procedure:
(§3) For viral protein-derived peptides displaying bactericidal activity, bacterial killing kinetics was determined by a conventional method based on colony counts obtained after different times of exposure of the bacterial cells to the peptides ([Barry et al., 1999]). The assay was performed using S. aureus and P. aeruginosa as representative strains of Gram-positive and Gram-negative bacteria, respectively. Bacterial suspensions prepared in MHB at 5 × 10^5 CFU/mL were treated with each peptide at final concentrations corresponding to their MBC, and incubated at 37°C and 200 rpm. A control of bacterial suspensions without peptide was performed under the same conditions. Aliquots of untreated and peptide-treated bacterial suspensions were withdrawn at 0, 15, 30, 60, 120, and 180 min, serially diluted in MHB, and plated on TSA plates. Bacterial colonies were counted after 24 h of incubation at 37°C. Viable bacteria (in CFU/mL) are reported as percentage of the control. The assay was performed in triplicate.

The subject of assay [7] is P. aeruginosa. Kind of assay: Time-kill assay. It counts as cell-based, Pseudomonas aeruginosa. The settings on record: peptide at its MBC, after 180 min, MHB, 37°C, relative to control without peptide, three independent experiments. On the procedure:
as §3

Assay [8] deals with P. aeruginosa. The experiment in a line: SYTOX Green uptake assay (membrane permeabilization, flow cytometry). It counts as cell-based, Pseudomonas aeruginosa. Conditions: P. aeruginosa 5 × 10^5 CFU/mL in 10 mM HEPES pH 7.4, 150 mM NaCl, 1 h, 37°C, twofold dilutions starting at MBC. The protocol: SYTOX® Green (Invitrogen, Carlsbad, CA, USA) is a high-affinity nucleic acid stain that only penetrates cells with compromised plasma membranes and emits fluorescence when bound to DNA ([Roth et al., 1997]). A SYTOX Green uptake assay ([Torcato et al., 2013]; [Sani et al., 2015]) was performed using P. aeruginosa to study the effect of viral protein-derived peptides on those bacterial membranes. Bacterial suspensions at 1 × 10^8 CFU/mL in MHB were centrifuged for 10 min at 4000 × g and the pellet resuspended in 10 mM HEPES buffer, pH 7.4, containing 150 mM NaCl, to a final concentration of 5 × 10^5 CFU/mL. The bacterial suspensions were incubated for 1 h at 37°C and 200 rpm, with twofold dilutions of each bactericidal viral protein-derived peptide in a range of concentrations starting at their corresponding MBC. Peptide-treated bacterial cells were incubated with 0.1 μM of SYTOX Green for 10 min, on ice and protected from light. The fluorescence emission intensity signal was measured by flow cytometry (excitation with 488 nm laser and detection at 530 nm with 30 nm bandpass) and a total of 50 000 events were recorded. […] The percentage of permeabilized cells was determined considering that untreated bacterial cells (negative control) are 0% permeabilized and bacterial cells treated with isopropyl alcohol (positive control) are 100% permeabilized. […]
Background: A flow cytometer gives signals particle by particle.

The next assay deals with P. aeruginosa cells. Kind of assay: Atomic force microscopy (AFM) imaging. The settings on record: 1 h, 37°C. The class given is cell-based, Pseudomonas aeruginosa. The protocol: Atomic force microscopy (AFM) imaging was used to study the effect of the bactericidal viral protein-derived peptides on P. aeruginosa cells. Bacterial suspensions at 1 × 10^8 CFU/mL in MHB were centrifuged for 10 min at 4000 × g, and the pellet resuspended in HEPES buffer to a final concentration of 1 × 10^7 CFU/mL. The bacterial suspensions were treated with each peptide at concentrations corresponding to their MBC, as well as the concentrations above and below their MBC, and incubated for 1 h at 37°C and 200 rpm. As control, untreated bacterial suspension was also incubated using the same conditions. A 200 μL droplet of each test sample was applied on a poly-L-lysine-coated glass slide and allowed to deposit for 20 min at room temperature. Each sample was then rinsed 10 times with sterile Milli-Q water and allowed to dry for 30 min at room temperature. AFM images were acquired using a JPK NanoWizard II (Berlin, Germany) mounted on a Zeiss Axiovert 200 inverted microscope (Göttingen, Germany). Measurements were carried out in air and in intermittent contact mode using uncoated silicon ACL cantilevers from APPNano (Mountain View, CA, USA). ACL cantilevers had typical resonance frequencies of 190 kHz and a spring constant of 45 N/m. Bacteria were first visualized through the optical microscope before being selected for imaging. On average, 14 untreated bacteria and 10 individual bacterial cells were imaged for each peptide concentration, with a total area of 4 μm × 4 μm from three independent bacterial preparation slides. Height images were recorded and treated with JPK SPM data processing 5.1.8.

For assay [9], the system named is Staphylococcus aureus (S. aureus) ATCC 25923. Conditions: previous screen, ref Freire et al., 2015a; cited from earlier work.
Assay [10] has as its system Pseudomonas aeruginosa (P. aeruginosa) ATCC 27853. Conditions: previous screen, ref Freire et al., 2015a; cited from earlier work.
Assay [11] has as its system Staphylococcus aureus (S. aureus) ATCC 25923. The class given is cell-based. Conditions: MHB, 5 × 10^5 CFU/mL, 37°C, 18 h, triplicate. On the procedure: as §1
In another assay the test system is MRSA. It counts as cell-based, Staphylococcus aureus. Conditions: for bactericidal or bacteriostatic: bactericidal when MBC is equal or lower than four-fold MIC; for MBC: lowest concentration causing ≥99.9% cell death of the inoculum, TSA plates, 37°C, 24 h, triplicate. On the procedure:
as §2

The test system of a further assay is E. coli. It counts as cell-based, Escherichia coli. The settings on record: for bactericidal or bacteriostatic: bactericidal when MBC is equal or lower than four-fold MIC; for MBC: lowest concentration causing ≥99.9% cell death of the inoculum, TSA plates, 37°C, 24 h, triplicate. The protocol: as §2

Where two headings read alike, the source gives them in different places. Where no end group is shown, it is not given here.

For GRRGPRRANQNGTRRRRRRT-NH2 [vCPP 1779], the minimum inhibitory concentration (MIC) in [1] is 25 µM; in assay [2], 25 µM; in assay [3] it was over 100 µM.

Consider INWKKWWQVFYTVV-NH2 [vAMP 059], for which the bactericidal or bacteriostatic result with S. aureus [4] and in the assay with P. aeruginosa [5] was “bactericidal” each time. Moreover, the MBC against S. aureus [4] amounted to 1.56 µM; with P. aeruginosa [5] it was 6.25 µM. In the assay on S. aureus [6], the “reduction in bacterial viability” value was found to be 99.9%. Further, the “reduction of bacterial viability” value with P. aeruginosa [7] is given as 99.7%. Moreover, the “membrane permeabilization (SYTOX Green)” value in the assay on P. aeruginosa [8] was “increase in membrane permeabilization with increasing peptide concentrations”. In addition, the “morphological changes of cell envelope (AFM)” value with P. aeruginosa cells (all concentrations tested (MBC, above and below)) was “pronounced collapse in P. aeruginosa cell envelope”. The values for the MIC in assay [9] and in assay [10] were 0.78 µM and 6.25 µM, respectively.

For the substance KKRYKKKYKAYKPYKKKKKF-NH2 [vCPP 0275], the minimum inhibitory concentration (MIC) in assay [1] was 12.5 µM; in assay [2], 100 µM; in assay [11], 25 to 50 µM; in [3], 50 µM.

For RPRRRATTRRRITTGTRRRR-NH2 [vCPP 0667], the MIC in assay [1] came to 12.5 µM; in [2], 25 µM; in [11] it was 50 µM; in [3], 100 µM.

As for RRLTLRQLLGLGSRRRRRSR-NH2 [vCPP 0769], the MIC in [1] stood at 25 µM; in assay [2], 3.13 µM; in assay [11] it was 3.13 µM; in assay [3], 3.13 µM. The bactericidal or bacteriostatic result is “only inhibited bacterial growth” with MRSA, “only inhibited bacterial growth” with S. aureus [4], “bactericidal” in the assay with E. coli and “bactericidal” in the assay on P. aeruginosa [5]. The MBC was over 100 µM in the assay with MRSA, over 100 µM against S. aureus [4], 50 µM in the assay with E. coli and 6.25 µM with P. aeruginosa [5].

Regarding SPRRRTPSPRRRRSQSPRRR-NH2 [vCPP 0417], the MIC in assay [1] was 25 µM; in [2], 100 µM; in [11], over 100 µM; in assay [3] it was over 100 µM.

Consider WRRRYRRWRRRRRWRRRPRR-NH2 [vCPP 2319], for which the minimum inhibitory concentration (MIC) is 3.13 µM in assay [1], 3.13 µM in assay [2], 1.56 µM in assay [11] and 1.56 µM in [3]. For the same substance, the bactericidal or bacteriostatic result with MRSA, with S. aureus [4], in the assay with E. coli and in the assay on P. aeruginosa [5] was “bactericidal” each time. For the same substance, the MBC in the assay with MRSA, against S. aureus [4], in the assay with E. coli and in the assay with P. aeruginosa [5] was 3.13 µM each time. Besides, the “reduction in bacterial viability” value in the assay on S. aureus [6] amounted to 90.9%. The “reduction of bacterial viability” value with P. aeruginosa [7] is given as 97%. In the assay on P. aeruginosa [8], the “membrane permeabilization (SYTOX Green)” value is recorded as “increase in membrane permeabilization with increasing peptide concentrations”. For the same substance, the “morphological changes of cell envelope (AFM)” value in the assay on P. aeruginosa cells (1.56 μM, a concentration below MBC) is listed as “only minor alterations on bacterial topography”; with P. aeruginosa cells (treatment with MBC, or higher) it was “marked collapse of the membrane structure”.

A word on the MIC: it is the smallest concentration in the dilution series that meets the test's criterion for growth inhibition. Broadly, the MBC is the lowest tested concentration that kills the bacteria rather than only halting them.
